The text below walks through data of the OligoGym collection.

HELM strings list units from the 5' end as sugar, base in round brackets, then linkage (d deoxyribose, r ribose, m 2'-O-methyl, p phosphodiester). Strings are as the collection lists them; they lack the last nucleoside at the 3' end of the tested compound. [moe] = 2'-O-(2-methoxyethyl) (MOE); [sp] = phosphorothioate linkage; [m5C] = 5-methylcytosine

The target in the data set is PRNP. Put plainly: mouse, dose not given. To be noted: ASO.
For the substance “RNA1{[moe](A)[sp].[moe](T)p.[moe]([m5C])p.[moe](A)p.[moe](T)[sp].d(T)[sp].d(T)[sp].d(T)[sp].d(G)[sp].d([m5C])[sp].d([m5C])[sp].d(A)[sp].d(T)[sp].d(T)[sp].d(T)[sp].[moe](A)p.[moe](T)p.[moe]([m5C])[sp].[moe](T)}$$$$ (last 3' nucleoside missing)”, the 3 h FOB score was 3.25 score 0-7. As for “RNA1{[moe](A)[sp].[moe]([m5C])[sp].[moe](T)p.[moe]([m5C])p.[moe](T)p.[moe](A)p.[moe](T)p.d(G)[sp].d(T)[sp].d(T)[sp].d(T)[sp].d(T)[sp].d([m5C])[sp].d([m5C])[sp].d(A)[sp].d(G)[sp].d(T)[sp].[moe](G)p.[moe]([m5C])}$$$$ (last 3' nucleoside missing)”, the 3 h FOB score was determined as 4.25 score 0-7. Substance “RNA1{[moe](A)[sp].[moe]([m5C])p.[moe](A)p.[moe](A)p.[moe](T)[sp].d([m5C])[sp].d(T)[sp].d(G)[sp].d(T)[sp].d(T)[sp].d(G)[sp].d(T)[sp].d(G)[sp].d(G)[sp].d(T)[sp].[moe](T)p.[moe]([m5C])p.[moe](A)[sp].[moe](G)}$$$$ (last 3' nucleoside missing)” had a 3 h FOB score of 6.5 score 0-7. The substance “RNA1{[moe](A)[sp].[moe]([m5C])p.[moe](A)p.[moe](T)p.[moe](T)[sp].d(T)[sp].d(A)[sp].d(T)[sp].d(T)[sp].d(T)[sp].d([m5C])[sp].d(A)[sp].d(T)[sp].d(G)[sp].d(T)[sp].[moe](G)p.[moe]([m5C])p.[moe]([m5C])[sp].[moe](A)}$$$$ (last 3' nucleoside missing)” showed a 3 h FOB score of 3 score 0-7.

“RNA1{[moe](A)[sp].[moe]([m5C])p.[moe](G)p.[moe](T)p.[moe]([m5C])[sp].d([m5C])[sp].d(A)[sp].d(T)[sp].d(T)[sp].d(T)[sp].d(T)[sp].d([m5C])[sp].d(T)[sp].d(G)[sp].d(T)[sp].[moe](G)p.[moe]([m5C])p.[moe](T)[sp].[moe](T)}$$$$ (last 3' nucleoside missing)” came in with a 3 h FOB score of 1.75 score 0-7.

Regarding “RNA1{[moe](A)[sp].[moe]([m5C])p.[moe](T)p.[moe](G)p.[moe](A)[sp].d(A)[sp].d(T)[sp].d(T)[sp].d(T)[sp].d(T)[sp].d([m5C])[sp].d(T)[sp].d([m5C])[sp].d(T)[sp].d([m5C])[sp].[moe]([m5C])p.[moe]([m5C])p.[moe](A)[sp].[moe](G)}$$$$ (last 3' nucleoside missing)”, the 3 h FOB score came to 0 score 0-7.

As for “RNA1{[moe](A)[sp].[moe]([m5C])p.[moe](T)p.[moe](T)p.[moe](G)[sp].d(T)[sp].d([m5C])[sp].d(A)[sp].d(G)[sp].d(T)[sp].d(T)[sp].d(T)[sp].d(T)[sp].d(T)[sp].d([m5C])[sp].[moe]([m5C])p.[moe]([m5C])p.[moe]([m5C])[sp].[moe](A)}$$$$ (last 3' nucleoside missing)”, the 3 h FOB score came out at 1 score 0-7. Then “RNA1{[moe](A)[sp].[moe]([m5C])p.[moe](T)p.[moe](T)p.[moe](G)p.[moe](T)p.d([m5C])[sp].d(A)[sp].d(G)[sp].d(T)[sp].d(T)[sp].d(T)[sp].d(T)[sp].d(T)[sp].d([m5C])[sp].d([m5C])[sp].[moe]([m5C])p.[moe]([m5C])[sp].[moe](A)}$$$$ (last 3' nucleoside missing)”, with 0.25 score 0-7; and “RNA1{[moe](A)[sp].[moe]([m5C])p.[moe](T)p.[moe](T)p.d(G)[sp].d(T)[sp].d([m5C])[sp].d(A)[sp].d(G)[sp].d(T)[sp].d(T)[sp].d(T)[sp].d(T)[sp].d(T)[sp].[moe]([m5C])p.[moe]([m5C])p.[moe]([m5C])p.[moe]([m5C])[sp].[moe](A)}$$$$ (last 3' nucleoside missing)”, with 2.5 score 0-7; and “RNA1{[moe](A)[sp].[moe]([m5C])p.[moe](T)p.[moe]([m5C])p.[moe](T)[sp].d(A)[sp].d(T)[sp].d(G)[sp].d(T)[sp].d(T)[sp].d(T)[sp].d(T)[sp].d([m5C])[sp].[moe]([m5C])p.[moe](A)p.[moe](G)[sp].[moe](T)}$$$$ (last 3' nucleoside missing)”, with 4.5 score 0-7. “RNA1{[moe](A)[sp].[moe]([m5C])p.[moe](T)p.[moe]([m5C])p.[moe](T)[sp].d(A)[sp].d(T)[sp].d(G)[sp].d(T)[sp].d(T)[sp].d(T)[sp].d(T)[sp].d([m5C])[sp].d([m5C])[sp].d(A)[sp].[moe](G)p.[moe](T)p.[moe](G)[sp].[moe]([m5C])}$$$$ (last 3' nucleoside missing)” came in with a 3 h FOB score of 2 score 0-7.

For “RNA1{[moe](A)[sp].[moe]([m5C])p.[moe](T)p.[moe]([m5C])p.[moe](T)p.[moe](A)p.d(T)[sp].d(G)[sp].d(T)[sp].d(T)[sp].d(T)[sp].d(T)[sp].d([m5C])[sp].d([m5C])[sp].d(A)[sp].d(G)[sp].[moe](T)p.[moe](G)[sp].[moe]([m5C])}$$$$ (last 3' nucleoside missing)”, the 3 h FOB score was 1.25 score 0-7. With “RNA1{[moe](A)[sp].[moe]([m5C])p.[moe](T)p.[moe]([m5C])p.[moe](T)p.d(A)[sp].d(T)[sp].d(G)[sp].d(T)[sp].d(T)[sp].d(T)[sp].d(T)[sp].d([m5C])[sp].d([m5C])[sp].[moe](A)[sp].[moe](G)p.[moe](T)p.[moe](G)}$$$$ (last 3' nucleoside missing)”, the 3 h FOB score came to 2.25 score 0-7.

Turning to “RNA1{[moe](A)[sp].[moe]([m5C])p.[moe](T)p.[moe]([m5C])p.d(T)[sp].d(A)[sp].d(T)[sp].d(G)[sp].d(T)[sp].d(T)[sp].d(T)[sp].d(T)[sp].d([m5C])[sp].d([m5C])[sp].[moe](A)p.[moe](G)p.[moe](T)p.[moe](G)[sp].[moe]([m5C])}$$$$ (last 3' nucleoside missing)”, the 3 h FOB score is 1.5 score 0-7. For the substance “RNA1{[moe](A)[sp].[moe]([m5C])p.[moe](T)p.d([m5C])[sp].d(T)[sp].d(A)[sp].d(T)[sp].d(G)[sp].d(T)[sp].d(T)[sp].d(T)[sp].d(T)[sp].d([m5C])[sp].[moe]([m5C])p.[moe](A)p.[moe](G)p.[moe](T)p.[moe](G)[sp].[moe]([m5C])}$$$$ (last 3' nucleoside missing)”, the 3 h FOB score came to 1.5 score 0-7.

“RNA1{[moe](A)[sp].[moe]([m5C])p.[moe]([m5C])p.[moe](A)p.[moe](T)[sp].d(A)[sp].d(T)[sp].d(A)[sp].d([m5C])[sp].d([m5C])[sp].d(A)[sp].d(T)[sp].d(G)[sp].d(T)[sp].d(A)[sp].[moe]([m5C])p.[moe](A)p.[moe](G)[sp].[moe](T)}$$$$ (last 3' nucleoside missing)”: the 3 h FOB score stood at 4.75 score 0-7. The result for “RNA1{[moe](G)[sp].[moe](A)p.[moe](G)p.[moe](T)p.[moe](G)[sp].d(A)[sp].d(A)[sp].d(T)[sp].d(T)[sp].d(A)[sp].d(T)[sp].d(T)[sp].d(T)[sp].d(T)[sp].d([m5C])[sp].[moe](T)p.[moe](T)p.[moe]([m5C])[sp].[moe](T)}$$$$ (last 3' nucleoside missing)” reads 2 score 0-7; that for “RNA1{[moe](G)[sp].[moe](A)p.[moe](G)p.[moe]([m5C])p.[moe](A)[sp].d(A)[sp].d(T)[sp].d(A)[sp].d(T)[sp].d(A)[sp].d(T)[sp].d(T)[sp].d([m5C])[sp].d(A)[sp].d([m5C])[sp].[moe]([m5C])p.[moe](A)p.[moe](A)[sp].[moe](A)}$$$$ (last 3' nucleoside missing)”, 2.5 score 0-7; that for “RNA1{[moe](G)[sp].[moe](A)p.[moe](T)p.[moe](T)p.[moe](G)[sp].d(T)[sp].d([m5C])[sp].d(T)[sp].d([m5C])[sp].d([m5C])[sp].d([m5C])[sp].d(T)[sp].d(A)[sp].d(T)[sp].d(T)[sp].[moe]([m5C])p.[moe](T)p.[moe](T)[sp].[moe](T)}$$$$ (last 3' nucleoside missing)”, 5.5 score 0-7. The substance “RNA1{[moe](G)[sp].[moe](G)p.[moe](A)p.[moe](A)p.[moe](T)[sp].d(G)[sp].d([m5C])[sp].d([m5C])[sp].d(A)[sp].d([m5C])[sp].d(A)[sp].d(T)[sp].d(A)[sp].d(T)[sp].d(A)[sp].[moe](G)p.[moe](G)p.[moe](G)[sp].[moe](T)}$$$$ (last 3' nucleoside missing)” showed a 3 h FOB score of 4 score 0-7.

Turning to “RNA1{[moe](G)[sp].[moe](G)p.[moe](G)p.[moe](A)p.[moe](T)[sp].d(G)[sp].d(A)[sp].d(T)[sp].d([m5C])[sp].d(T)[sp].d(G)[sp].d([m5C])[sp].d(A)[sp].d(A)[sp].d(T)[sp].[moe](T)p.[moe](G)p.[moe](T)[sp].[moe](T)}$$$$ (last 3' nucleoside missing)”, the 3 h FOB score came to 4 score 0-7. Then “RNA1{[moe](G)[sp].[moe](G)p.[moe](T)p.[moe](G)p.[moe](A)[sp].d(T)[sp].d(T)[sp].d(T)[sp].d(T)[sp].d(T)[sp].d(T)[sp].d([m5C])[sp].d([m5C])[sp].d(T)[sp].d(T)[sp].[moe](T)p.[moe]([m5C])p.[moe](T)[sp].[moe](T)}$$$$ (last 3' nucleoside missing)”, with 1 score 0-7. On to “RNA1{[moe](G)[sp].[moe](G)p.[moe](T)p.[moe](T)p.[moe](A)[sp].d(G)[sp].d([m5C])[sp].d(T)[sp].d(T)[sp].d(T)[sp].d(T)[sp].d(T)[sp].d(T)[sp].d(T)[sp].d([m5C])[sp].[moe](A)p.[moe]([m5C])p.[moe](T)[sp].[moe](G)}$$$$ (last 3' nucleoside missing)”, for which the 3 h FOB score was 4.75 score 0-7. In the case of “RNA1{[moe](G)[sp].[moe](G)p.[moe](T)p.[moe](T)p.[moe](A)[sp].d([m5C])[sp].d(A)[sp].d(T)[sp].d(A)[sp].d(A)[sp].d(T)[sp].d(G)[sp].d(T)[sp].d(T)[sp].d([m5C])[sp].[moe](A)p.[moe](T)p.[moe](T)[sp].[moe](T)}$$$$ (last 3' nucleoside missing)”, the 3 h FOB score is 5 score 0-7. For “RNA1{[moe](G)[sp].[moe](G)p.[moe](T)p.[moe](T)p.[moe](A)p.[moe]([m5C])p.d(A)[sp].d(T)[sp].d(A)[sp].d(A)[sp].d(T)[sp].d(G)[sp].d(T)[sp].d(T)[sp].d([m5C])[sp].d(A)[sp].[moe](T)p.[moe](T)[sp].[moe](T)}$$$$ (last 3' nucleoside missing)”, the 3 h FOB score stood at 3.75 score 0-7.
